Marks after values point to notes of the source that are not given here.
Experiments:
Type in all cases: in vivo
[1] = test system: CCl4 administration in mice; experiment: Hexobarbitone sleep time after CCl4 administration
[2] = test system: CCl4 induced hepatic injury in rats; experiment: Hepatoprotective activity, curative study, CCl4
[3] = test system: CCl4 induced hepatic injury in rats; experiment: Hepatoprotective activity, prophylactic study, CCl4
[4] = test system: D-Galactosamine (Gal N) induced hepatic injury in rats; experiment: Hepatoprotective activity, curative study, D-Galactosamine
[5] = 12.5 mg/kg p.o. 1 h before CCl4, mice
[6] = 25 mg/kg p.o. 1 h before CCl4, mice
[7] = 50 mg/kg p.o. 1 h before CCl4, mice
[8] = 100 mg/kg p.o. 1 h before CCl4, mice
[9] = 12.5 mg/kg p.o. + CCl4, curative
[10] = 100 mg/kg p.o. + CCl4, curative
[11] = TCA alone 100 mg/kg p.o., no CCl4, curative study
[12] = 12.5 mg/kg p.o. + CCl4, prophylactic
[13] = 25 mg/kg p.o. + CCl4, prophylactic
[14] = 50 mg/kg p.o. + CCl4, prophylactic
[15] = 100 mg/kg p.o. + CCl4, prophylactic
[16] = TCA alone 100 mg/kg p.o., no CCl4, prophylactic study
[17] = 12.5 mg/kg p.o. + Gal N, curative
[18] = 25 mg/kg p.o. + Gal N, curative
[19] = 50 mg/kg p.o. + Gal N, curative
[20] = TCA alone 50 mg/kg p.o., no Gal N, curative study

SMILES: CCCCCCCC/C=C/CCCCCCCCCCCCCC(=O)O [TCA, t-Tetracos-15-enoic acid]
- Hexobarbitone Hepatoprotection [1, 5]: 35.55 ± 5.78%
- Hexobarbitone Sleeping time [1, 5]: 44.16 ± 1.87*^c min
- Hexobarbitone Hepatoprotection [1, 6]: 55.14 ± 7.16%
- Hexobarbitone Sleeping time [1, 6]: 37.83 ± 2.31**^c min
- Hexobarbitone Hepatoprotection [1, 7]: 74.21 ± 6.27%
- Hexobarbitone Sleeping time [1, 7]: 31.66 ± 2.31**^c min
- Hexobarbitone Hepatoprotection [1, 8]: 85.04 ± 7.12%
- Hexobarbitone Sleeping time [1, 8]: 28.16 ± 2.30**^c min
- Hexobarbitone Sleeping time ([1]; TCA alone 100 mg/kg p.o., no CCl4, mice): 21.85 ± 1.34 min
- Serum ALP [2, 9]: 51.81 ± 3.94^NS μmole of p-nitrophenol formed/min/L
- Serum ALP, hepatoprotective activity percent [2, 9]: (27.87 ± 9.48) percent
- Serum Bilirubin [2, 9]: 0.54 ± 0.02 mg %
- Serum Bilirubin, hepatoprotective activity percent [2, 9]: (44.52 ± 3.66) percent
- Serum GOT [2, 9]: 524.23 ± 34.93 Units
- Serum GOT, hepatoprotective activity percent [2, 9]: (37.12 ± 5.14) percent
- Serum GPT [2, 9]: 1001.86 ± 48.55 Units
- Serum GPT, hepatoprotective activity percent [2, 9]: (35.59 ± 3.37) percent
- Serum Triglycerides [2, 9]: 12.57 ± 0.61^NS mg %
- Serum Triglycerides, hepatoprotective activity percent [2, 9]: (24.12 ± 10.07) percent
- Serum ALP ([2]; 25 mg/kg p.o. + CCl4, curative): 50.92 ± 1.62 μmole of p-nitrophenol formed/min/L
- Serum ALP, hepatoprotective activity percent ([2]; 25 mg/kg p.o. + CCl4, curative): (34.03 ± 3.89) percent
- Serum Bilirubin ([2]; 25 mg/kg p.o. + CCl4, curative): 0.47 ± 0.03 mg %
- Serum Bilirubin, hepatoprotective activity percent ([2]; 25 mg/kg p.o. + CCl4, curative): (53.51 ± 4.06) percent
- Serum GOT ([2]; 25 mg/kg p.o. + CCl4, curative): 448.28 ± 54.88 Units
- Serum GOT, hepatoprotective activity percent ([2]; 25 mg/kg p.o. + CCl4, curative): (48.31 ± 8.808) percent
- Serum GPT ([2]; 25 mg/kg p.o. + CCl4, curative): 772.68 ± 47.66 Units
- Serum GPT, hepatoprotective activity percent ([2]; 25 mg/kg p.o. + CCl4, curative): (51.52 ± 3.31) percent
- Serum Triglycerides ([2]; 25 mg/kg p.o. + CCl4, curative): 11.81 ± 1.05^NS mg %
- Serum Triglycerides, hepatoprotective activity percent ([2]; 25 mg/kg p.o. + CCl4, curative): (36.23 ± 18.23) percent
- Serum ALP ([2]; 50 mg/kg p.o. + CCl4, curative): 43.63 ± 2.82 μmole of p-nitrophenol formed/min/L
- Serum ALP, hepatoprotective activity percent ([2]; 50 mg/kg p.o. + CCl4, curative): (51.57 ± 6.78) percent
- Serum Bilirubin ([2]; 50 mg/kg p.o. + CCl4, curative): 0.39 ± 0.02 mg %
- Serum Bilirubin, hepatoprotective activity percent ([2]; 50 mg/kg p.o. + CCl4, curative): (64.25 ± 3.76) percent
- Serum GOT ([2]; 50 mg/kg p.o. + CCl4, curative): 365.43 ± 29.43 Units
- Serum GOT, hepatoprotective activity percent ([2]; 50 mg/kg p.o. + CCl4, curative): (60.50 ± 4.33) percent
- Serum GPT ([2]; 50 mg/kg p.o. + CCl4, curative): 582.12 ± 37.77 Units
- Serum GPT, hepatoprotective activity percent ([2]; 50 mg/kg p.o. + CCl4, curative): (64.76 ± 2.62) percent
- Serum Triglycerides ([2]; 50 mg/kg p.o. + CCl4, curative): 11.06 ± 0.61 mg %
- Serum Triglycerides, hepatoprotective activity percent ([2]; 50 mg/kg p.o. + CCl4, curative): (48.86 ± 10.64) percent
- Serum ALP [2, 10]: 32.93 ± 2.13 μmole of p-nitrophenol formed/min/L
- Serum ALP, hepatoprotective activity percent [2, 10]: (77.31 ± 5.13) percent
- Serum Bilirubin [2, 10]: 0.29 ± 0.02 mg %
- Serum Bilirubin, hepatoprotective activity percent [2, 10]: (76.54 ± 3.66) percent
- Serum GOT [2, 10]: 318.96 ± 16.15 Units
- Serum GOT, hepatoprotective activity percent [2, 10]: (67.35 ± 2.38) percent
- Serum GPT [2, 10]: 457.55 ± 18.18 Units
- Serum GPT, hepatoprotective activity percent [2, 10]: (73.41 ± 1.26) percent
- Serum Triglycerides [2, 10]: 10.37 ± 0.65 mg %
- Serum Triglycerides, hepatoprotective activity percent [2, 10]: (61.02 ± 11.24) percent
- Serum ALP [2, 11]: 25.84 ± 2.32 μmole of p-nitrophenol formed/min/L
- Serum Bilirubin [2, 11]: 0.16 ± 0.02 mg %
- Serum GOT [2, 11]: 82.13 ± 10.59 Units
- Serum GPT [2, 11]: 92.18 ± 15.75 Units
- Serum Triglycerides [2, 11]: 6.98 ± 0.86 mg %
- Serum ALP [3, 12]: 45.25 ± 2.37^NS μmole of p-nitrophenol formed/min/L
- Serum ALP, hepatoprotective activity percent [3, 12]: (26.32 ± 6.55) percent
- Serum Bilirubin [3, 12]: 0.47 ± 0.01 mg %
- Serum Bilirubin, hepatoprotective activity percent [3, 12]: (47.98 ± 2.02) percent
- Serum GOT [3, 12]: 695.16 ± 67.28 Units
- Serum GOT, hepatoprotective activity percent [3, 12]: (33.87 ± 7.99) percent
- Serum GPT [3, 12]: 992.34 ± 73.25 Units
- Serum GPT, hepatoprotective activity percent [3, 12]: (41.52 ± 4.97) percent
- Serum Triglycerides [3, 12]: 13.51 ± 0.51^NS mg %
- Serum Triglycerides, hepatoprotective activity percent [3, 12]: (26.40 ± 7.84) percent
- Serum ALP [3, 13]: 39.48 ± 2.46 μmole of p-nitrophenol formed/min/L
- Serum ALP, hepatoprotective activity percent [3, 13]: (43.28 ± 7.81) percent
- Serum Bilirubin [3, 13]: 0.42 ± 0.01 mg %
- Serum Bilirubin, hepatoprotective activity percent [3, 13]: (55.33 ± 2.86) percent
- Serum GOT [3, 13]: 674.44 ± 53.20 Units
- Serum GOT, hepatoprotective activity percent [3, 13]: (36.33 ± 6.32) percent
- Serum GPT [3, 13]: 924.39 ± 39.82 Units
- Serum GPT, hepatoprotective activity percent [3, 13]: (46.10 ± 2.70) percent
- Serum Triglycerides [3, 13]: 12.11 ± 0.70^NS mg %
- Serum Triglycerides, hepatoprotective activity percent [3, 13]: (47.72 ± 11.33) percent
- Serum ALP [3, 14]: 35.19 ± 2.90 μmole of p-nitrophenol formed/min/L
- Serum ALP, hepatoprotective activity percent [3, 14]: (56.81 ± 9.15) percent
- Serum Bilirubin [3, 14]: 0.34 ± 0.01 mg %
- Serum Bilirubin, hepatoprotective activity percent [3, 14]: (67.67 ± 2.30) percent
- Serum GOT [3, 14]: 543.99 ± 79.93 Units
- Serum GOT, hepatoprotective activity percent [3, 14]: (51.82 ± 9.94) percent
- Serum GPT [3, 14]: 636.69 ± 44.49 Units
- Serum GPT, hepatoprotective activity percent [3, 14]: (65.66 ± 3.02) percent
- Serum Triglycerides [3, 14]: 11.89 ± 0.75^NS mg %
- Serum ALP [3, 15]: 30.14 ± 2.54 μmole of p-nitrophenol formed/min/L
- Serum ALP, hepatoprotective activity percent [3, 15]: (72.92 ± 8.07) percent
- Serum Bilirubin [3, 15]: 0.26 ± 0.02 mg %
- Serum Bilirubin, hepatoprotective activity percent [3, 15]: (79.04 ± 3.57) percent
- Serum GOT [3, 15]: 432.08 ± 37.38 Units
- Serum GOT, hepatoprotective activity percent [3, 15]: (65.10 ± 4.50) percent
- Serum GPT [3, 15]: 419.72 ± 17.60 Units
- Serum GPT, hepatoprotective activity percent [3, 15]: (80.39 ± 1.19) percent
- Serum Triglycerides [3, 15]: 11.20 ± 0.68^NS mg %
- Serum Triglycerides, hepatoprotective activity percent [3, 15]: (61.75 ± 1.44) percent
- Serum ALP [3, 16]: 23.15 ± 2.92 μmole of p-nitrophenol formed/min/L
- Serum Bilirubin [3, 16]: 0.17 ± 0.02 mg %
- Serum GOT [3, 16]: 110.53 ± 25.55 Units
- Serum GPT [3, 16]: 102.66 ± 28.41 Units
- Serum Triglycerides [3, 16]: 6.98 ± 0.79 mg %
- Serum ALP [4, 17]: 46.03 ± 2.35^NS μmole of p-niotrophenol formed/min/L
- Serum ALP, hepatoprotective activity percent [4, 17]: (43.65 ± 6.96) percent
- Serum Bilirubin [4, 17]: 0.56 ± 0.03 mg %
- Serum Bilirubin, hepatoprotective activity percent [4, 17]: (46.75 ± 3.74) percent
- Serum GOT [4, 17]: 494.53 ± 41.13 Units
- Serum GOT, hepatoprotective activity percent [4, 17]: (34.12 ± 6.65) percent
- Serum GPT [4, 17]: 578.14 ± 57.37 Units
- Serum GPT, hepatoprotective activity percent [4, 17]: (40.40 ± 7.08) percent
- Serum Triglycerides [4, 17]: 11.85 ± 0.75^NS mg %
- Serum Triglycerides, hepatoprotective activity percent [4, 17]: (32.78 ± 8.37) percent
- Serum ALP [4, 18]: 38.87 ± 2.62 μmole of p-niotrophenol formed/min/L
- Serum ALP, hepatoprotective activity percent [4, 18]: (64.83 ± 7.74) percent
- Serum Bilirubin [4, 18]: 0.46 ± 0.03 mg %
- Serum Bilirubin, hepatoprotective activity percent [4, 18]: (59.74 ± 4.04) percent
- Serum GOT [4, 18]: 449.93 ± 31.58 Units
- Serum GOT, hepatoprotective activity percent [4, 18]: (41.37 ± 5.10) percent
- Serum GPT [4, 18]: 518.66 ± 42.64 Units
- Serum GPT, hepatoprotective activity percent [4, 18]: (47.74 ± 5.26) percent
- Serum Triglycerides [4, 18]: 10.48 ± 0.91^NS mg %
- Serum Triglycerides, hepatoprotective activity percent [4, 18]: (46.11 ± 9.77) percent
- Serum ALP [4, 19]: 36.94 ± 1.87 μmole of p-niotrophenol formed/min/L
- Serum ALP, hepatoprotective activity percent [4, 19]: (71.88 ± 5.54) percent
- Serum Bilirubin [4, 19]: 0.35 ± 0.02 mg %
- Serum Bilirubin, hepatoprotective activity percent [4, 19]: (73.16 ± 2.95) percent
- Serum GOT [4, 19]: 391.66 ± 29.53 Units
- Serum GOT, hepatoprotective activity percent [4, 19]: (50.76 ± 4.78) percent
- Serum GPT [4, 19]: 412.17 ± 31.17 Units
- Serum GPT, hepatoprotective activity percent [4, 19]: (60.88 ± 3.85) percent
- Serum Triglycerides [4, 19]: 9.23 ± 0.59 mg %
- Serum Triglycerides, hepatoprotective activity percent [4, 19]: (61.84 ± 6.59) percent
- Serum ALP [4, 20]: 24.45 ± 2.76 μmole of p-niotrophenol formed/min/L
- Serum Bilirubin [4, 20]: 0.19 ± 0.02 mg %
- Serum GOT [4, 20]: 91.07 ± 10.50 Units
- Serum GPT [4, 20]: 105.02 ± 18.74 Units
- Serum Triglycerides [4, 20]: 6.44 ± 0.38 mg %

Source: patent US6852759B2, “Process for the synthesis of trans-alkenoic acids, use thereof” (priority 2002, dated 2005)
